Entries after “also recorded” stand apart in the source; their conditions may differ.
How the values were obtained:
[1] = tested on: Human polymorphonuclear leukocytes; experiment: Phagocytosis: radioiodination of zymosan particles (125I uptake); format: cell-based
Protocol: Data are expressed as percentage of ^125 I incorporation into glass
fiber-filterable material. Assays were carried out using 1 ×

glucocorticoid receptors = conditions: Merriam et al, 1980; cited from earlier work
[2] = tested on: cultured smooth muscle cells from rabbit aorta; conditions: Nishigaki et al., 1995; cited from earlier work
RBL2H3 cells = experiment: Mast cell degranulation: [3H]-5HT release; format: cell-based; conditions: for DNP-OA-stimulated release of [3H]-5HT: ovalbumin (DNP-OA), 10 μM
Protocol: RBL2H3 cells were cultured in RPMI 1640 containing 10% FCS and were passaged into 24 well plates for experiments. The cells were sensitised by a 48 hour incubation with 50% (V/V) conditioned medium from a lymphoid cell line secreting anti-DNP ovalbumin antibody. During the last 24 hours of this incubation [^3 H]-5HT (1 μCi/ml) was added to each of the wells to label granular amine stores. At the end of the incubation period, the medium was aspirated, the cells were washed twice in RPMI 1640 and incubated in RPMI 1640 (0.25% BSA) in the absence or presence of 2-methyoxyoestradiol for 15 mins prior to stimulation with DNP-treated ovalbumin, A23187 or PMA for 30 mins at which time the supernatants were harvested, subjected to centrifugation (1000×g, 4° C., 5 min) and aliquots taken for determination of the amount of [^3 H]-5HT released. All experiments were carried out in quadruplicate.

[3] = tested on: Human polymorphonuclear leukocytes; experiment: Tetramethylbenzidine oxidation (myeloperoxidase release/activity) in leukocytes; conditions: for Tetramethylbenzidine oxidation: 2-methoxyestradiol 3 μM

## COc1cc2c(cc1O)CC[C@@H]1[C@@H]2CC[C@]2(C)[C@@H](O)CC[C@@H]12 [2-methoxyestradiol, 1,3,5[10]-estratriene-2,3,17-triol 2-methylether]
[1]; 3 μM, PHS (pooled human serum), control (basal 2.13)
  125I uptake: 1.87 percentage of ^125 I incorpora
[1]; 3 μM, PHS, zymosan (basal 4.33)
  125I uptake: 3.27 percentage of ^125 I incorpora
[1]; 3 μM, no PHS, control (basal 1.80)
  125I uptake: 1.97 percentage of ^125 I incorpora
[1]; 3 μM, no PHS, zymosan (basal 2.83)
  125I uptake: 1.97 percentage of ^125 I incorpora
[1]; 10 μM, PHS, control (basal 2.13)
  125I uptake: 1.75 percentage of ^125 I incorpora
[1]; 10 μM, PHS, zymosan (basal 4.33)
  125I uptake: 1.65 percentage of ^125 I incorpora
[1]; 10 μM, no PHS, control (basal 1.80)
  125I uptake: 2.05 percentage of ^125 I incorpora
[1]; 10 μM, no PHS, zymosan (basal 2.83)
  125I uptake: 1.80 percentage of ^125 I incorpora
[1]; 3 and 10 μM
  radioiodination of zymosan particles by PMN (phagocytosis): significant effects being observed at both 3 and 10 μM
[1]; human peripheral blood
  phagocytic activity of polymorphonuclear leukocytes: reduction of phagocytic activity
Glucocorticoid receptors
  affinity for glucocorticoid receptors: not to have significant affinity
[2]
  proliferation of rabbit aorta smooth muscle cells: anti-proliferative effects
RBL2H3 cells; basal, PMA (100 nM), A23187 (10 μM)
  release of [3H]-5HT, basal or PMA or A23187: unaffected; also recorded: did not affect release in response to PMA
RBL2H3 cells
  DNP-OA-stimulated release of [3H]-5HT: reduced
RBL2H3 cells; listed as 2-methoxyoestradiol
  DNP-OA-stimulated release of [3H]-5HT: inhibits degranulation
[3]; 3 μM, zymosan (400 μg/ml) or fMLP stimulated
  oxidation of tetramethyl-benzidine in leukocytes: reduced oxidation of tetramethyl-benzidine
[3]; control (no stimulus), 2×10^6 PMN in 0.5 ml
  Tetramethylbenzidine oxidation: -0.004 change in absorbance value
[3]; fMLP 100 nM (basal 0.057)
  Tetramethylbenzidine oxidation: 0.028 change in absorbance value
[3]; zymosan 400 μg/ml (basal 0.26)
  Tetramethylbenzidine oxidation: 0.013 change in absorbance value
[3]; fMLP stimulated leukocytes, highest concentration 10 μM
  myeloperoxidase activity in cell-free supernatants: reduced only by the highest concentration
[3]; human peripheral blood
  release of myeloperoxidase from polymorphonuclear leukocytes: inhibits the release of myeloperoxidase
